The target of the assay is T1, Human Polymorphonuclear Leukocyte Elastase (Homo sapiens, UniProt P08246).
T1 construct: Crude extract of human polymorphonuclear leukocytes (PMN) containing elastase activity; endogenous in cells; host or cells: human polymorphonuclear leukocytes (crude extract)
T1 sequence (P08246 30-247 limits assumed): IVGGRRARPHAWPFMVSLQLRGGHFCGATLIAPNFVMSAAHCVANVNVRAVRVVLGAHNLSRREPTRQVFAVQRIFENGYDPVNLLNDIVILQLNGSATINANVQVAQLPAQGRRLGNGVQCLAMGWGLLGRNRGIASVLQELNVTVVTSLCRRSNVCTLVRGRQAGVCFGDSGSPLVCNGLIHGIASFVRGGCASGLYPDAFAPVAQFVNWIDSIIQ
Put plainly: Inhibition of human polymorphonuclear leukocyte elastase via hydrolysis of N-t-Boc-alanyl-alanyl-prolylalanine-p-nitroanilide. As to conditions: measured within 2 minutes, crude PMN extract; for inhibition at 5 µg/mL: Conc. of compound 5 μg/ml; for inhibition at 20 µg/mL: Conc. of compound 20 μg/ml; for inhibition at 50 µg/mL: Conc. of compound 50 μg/ml; for inhibition at 1 µg/mL: Conc. of compound 1 μg/ml; for inhibition at 2 µg/mL: Conc. of compound 2 μg/ml. In kind it is biochemical. The method, then: Protocol--Enzyme Assays for the Inhibition of Human Polymorphonuclear Leukocyte Elastase Via Hydrolysis of N-t-Boc-alanyl-alanyl-prolylalanine-p-nitroanilide
0.05M TES (N-tris[hydroxymethyl]methyl-2-amino-ethanesulfonic acid) Buffer, pH 7.5.
0.2 mM N-t-Boc-alanyl-alanyl-Prolyl-Alanine-p-nitroanilide (Boc-AAPAN).
To prepare substrate, the solid (m.w. 550) was first dissolved in 10.0 ml DMSO. Buffer at pH 7.5 was then added to a final volume of 100 ml.
Crude extract of human polymorphonuclear leukocytes (PMN) containing elastase activity.
Inhibitors (thienamycin esters) to be treated dissolved in DMSO just before use.
To 1.0 ml of 0.2 mM Boc-AAPAN in a cuvette, 0.01-0.1 ml of DMSO with or without inhibitor was added. After mixing, a measurement was taken at 410 mμ to detect any spontaneous hydrolysis due to presence of test compound. 0.05 Milliliters of PMN extract was then added and the ΔOD/min at 410 mμ was measured and recorded. Beckman model 35 spectrophotometer was used.
The elastase activity in the crude PMN extract may vary from one preparation to another. A control of each new batch is run, and the volume added in the assay procedure is adjusted according to activity.

We go through five compounds from patent US4465687A, “Thienamycin derivatives as anti-inflammatory agents” (Merck & Co., Inc., priority 1982, dated 1984).

`CCCC(=O)NCCSC1=C(C(=O)OCc2ccc([N+](=O)[O-])cc2)N2C(=O)[C@H]([C@@H](C)OC(C)=O)[C@H]2C1` [COCH2 C2 H5 / H / Ac / PNB] displayed an inhibition at 5 µg/mL of 31%, an inhibition at 20 µg/mL of 69% and an inhibition at 50 µg/mL of 89%.

`CC(O)[C@H]1C(=O)N2C(C(=O)OCc3ccc([N+](=O)[O-])cc3)=C(SCCNC(=O)Cc3ccccc3)C[C@H]12` (stereo partly drawn) [COCH2 C6 H5 / H / H / PNB] came in with an inhibition at 1 µg/mL of 47%, an inhibition at 5 µg/mL of 84%, an inhibition at 20 µg/mL of 95% and an inhibition at 50 µg/mL of 100%.

For `CC(O)[C@H]1C(=O)N2C(C(=O)OCc3ccc([N+](=O)[O-])cc3)=C(SCCN3C(=O)c4ccccc4C3=O)C[C@H]12` (stereo partly drawn) [phthaloyl / H / PNB], the inhibition at 1 µg/mL was 76%, 2 µg/mL produced 86% inhibition, testing at 5 µg/mL gave an inhibition of 93% and the inhibition at 20 µg/mL was 100%. Under “Conc. of compound .5 μg/ml”, this compound registered an inhibition at 0.5 µg/mL of 50%.

For the compound `CC(O)[C@H]1C(=O)N2C(C(=O)OCc3ccccc3)=C(SCCN3C(=O)c4ccccc4C3=O)C[C@H]12` (stereo partly drawn) [phthaloyl / H / benzyl], the inhibition at 1 µg/mL worked out at 39%, the inhibition at 2 µg/mL was 56%, at 5 µg/mL the inhibition was 89% and 20 µg/mL produced 100% inhibition.

In turn, `CC(O[Si](C)(C)C)[C@H]1C(=O)N2C(C(=O)OCc3ccc([N+](=O)[O-])cc3)=C(SCCN3C(=O)c4ccccc4C3=O)C[C@H]12` (stereo partly drawn) [phthaloyl / TMS / PNB] gave an inhibition at 1 µg/mL of 38%, an inhibition at 2 µg/mL of 83% and an inhibition at 50 µg/mL of 96%. The compound further displayed an inhibition at 10 µg/mL (Conc. of compound 10 μg/ml) of 95%. This compound also came in with an inhibition at 25 µg/mL (Conc. of compound 25 μg/ml) of 95%.

As usually defined, the inhibition is the relative decrease from the control value, in per cent. A high value points to a response far below the control.
